Assay results from patent US11459327B1, “Cycloalkyl and hetero-cycloalkyl inhibitors, preparation methods therefor, and use thereof” (Suzhou Zelgen Biopharmaceuticals Co., Ltd., priority 2019, dated 2022).

These molecules were tested on NCI-H358(KRAS^G12C mutation) cells (assay: Cell assay of antiproliferative activity (Celltiter-Glo, 5 days) against NCI-H358 cells). Details: 5 days incubation.
Type: cell-based
Procedure: Cell assay of antiproliferative activity of compounds against NCI-H358(KRAS^G12C mutation) and A549(KRAS^G12S mutation) cells.
40 μl phosphate buffer was added to the outer wells of the 384 microplate, and 40 μl cell suspension to be tested was added to the other wells. Then the microplate was incubated in a carbon dioxide incubator overnight.
The compounds to be tested were gradiently diluted, each compound was performed 10 concentration gradients (diluted from 50 μM to 0.003 μM) and added 100 nL to the corresponding wells in the microplate. After addition, 40 μl of phosphate buffer was added to each well in rows A and P and columns 1 and 24, and then the microplate was incubated in a carbon dioxide incubator for 5 days.
20 μL of Promega Celltiter-Glo reagent was added to each well of the microplate, and then the luminescence signal was stabilized by oscillating at room temperature for 10 min. Then PekinElmer Envision multi-label analyzer was used to read.
Finally, GraphPad Prism software was used to calculate the IC50 value of the compound and the fitting curve was drawn.
Anti-proliferative activity of the compounds of the present invention against NCI-H358(KRAS^G12C mutation) and A549(KRAS^G12S mutation) cells were shown in Table 1.

Compound | IC50 [nM]
C=C(F)C(=O)N1CCN(c2nc(OCC3(CN(C)C)CC3)nc3c2C[C@@H](C)N(c2cccc4ccc(F)c(Cl)c24)C3)C[C@@H]1CC#N [Example 96B, 2-((S)-4-((R)-7-(8-chloro-7-fluoronaphthalen-1-yl)-2-((1-((dimethylamino)methyl)cyclopropyl)methoxy)-6-methyl-5,6,7,8-tetrahydropyrido[3,4-d]pyrimidin-4-yl)-1-(2-fluoroacroloyl)piperazin-2-yl) acetonitrile] | 5
C=C(F)C(=O)N1CCN(c2nc(OCC3(C(C)N(C)C)CC3)nc3c2CCN(c2cccc4cccc(Cl)c24)C3)C[C@@H]1CC#N (stereo partly drawn) [Example 53B, 2-((2S)-4-(7-(8-chloronaphthalen-1-yl)-2-(1-(1-((dimethylamino)ethyl)cyclopropyl)methoxy)-5,6,7,8-tetrahydropyrido[3,4-d]pyrimidin-4-yl)-1-(2-fluoroacroloyl)piperazin-2-yl) acetonitrile] | 1300
C=C(F)C(=O)N1CCN(c2nc(OCC3(C(C)N(C)C)CC3)nc3c2CCN(c2cccc4cccc(Cl)c24)C3)C[C@@H]1CC#N (stereo partly drawn) [Example 53A, 2-((2S)-4-(7-(8-chloronaphthalen-1-yl)-2-(1-(1-((dimethylamino)ethyl)cyclopropyl)methoxy)-5,6,7,8-tetrahydropyrido[3,4-d]pyrimidin-4-yl)-1-(2-fluoroacroloyl)piperazin-2-yl) acetonitrile] | 1400
C=CC(=O)N1CCN(c2nc(OCCN(C)CC3(F)CC3)nc3c2CCN(c2cccc4cccc(C)c24)C3)CC1CC#N (stereo not drawn) [Example 80, 2-(1-acroloyl-4-(2-(2-(((1-fluorocyclopropyl)methyl) (methyl)amino)ethoxy)-7-(8-methylnaphthalen-1-yl)-5,6,7,8-tetrahydropyrido[3,4-d]pyrimidin-4-yl)piperazin-2-yl) acetonitrile] | < 100
C=C(F)C(=O)N1CCN(c2nc(OCC3(C(C)N(C)C)CC3)nc3c2CCN(c2cccc4cccc(Cl)c24)C3)C[C@@H]1CC#N (stereo partly drawn) [Example 47A, 2-((2S)-4-(7-(8-chloronaphthalen-1-yl)-2-((1-(1-(dimethylamino)ethyl)cyclopropyl)methoxy)-5,6,7,8-tetrahydropyrido[3,4-d]pyrimidin-4-yl)-1-(2-fluoroacroloyl)piperazin-2-yl) acetonitrile] | 100
C=CC(=O)N1CCN(c2nc(OC[C@H](C)N(C)C3CCC3)nc3c2CCN(c2cccc4cccc(C)c24)C3)C[C@@H]1CC#N [Example 91A, 2-((S)-1-acroloyl-4-(2-((S)-2-(cyclobutyl(methyl)amino)propoxy)-7-(8-methylnaphthalen-1-yl)-5,6,7,8-tetrahydropyrido[3,4-d]pyrimidin-4-yl)piperazin-2-yl) acetonitrile] | < 30

Same assay, conditions: Homo sapiens, NCI-H358, 120 h, 5 days incubation

Compound | IC50 [nM]
C=CC(=O)N1CCN(c2nc(OCCN(C)CC3CC3)nc3c2CCN(c2cccc(F)c2C(F)(F)F)C3)CC1 [Example 95] | 6260
C=C(F)C(=O)N1CCN(c2nc(OCC3(CS(C)(=O)=O)CC3)nc3c2CCN(c2cccc4cccc(Cl)c24)C3)C[C@@H]1CC#N [Example 57, (S)-2-(4-(7-(8-chloronaphthalen-1-yl)-2-((1-((methylsulfonyl)methyl)cyclopropyl)methoxy)-5,6,7,8-tetrahydropyrido[3,4-d]pyrimidin-4-yl)-1-(2-fluoroacroloyl)piperazin-2-yl) acetonitrile] | 1300
C=CC(=O)N1CCN(c2nc(OCC3(CN(C)C)CC3)nc3c2CCN(c2cccc4cccc(Cl)c24)C3)[C@@H](C)C1 [Example 50, (S)-1-(-4-(7-(8-chloronaphthalen-1-yl)-2-((1-((dimethylamino)methyl)cyclopropyl)methoxyl)-5,6,7,8-tetrahydropyrido[3,4-d]pyrimidin-4-yl)-3-methylpiperazin-1-yl)prop-2-ene-1-one] | 300
C=CC(=O)N1CC2(CCN(c3nc(OCC4(CN(C)C)CC4)nc4c3CCN(c3cccc5cccc(Cl)c35)C4)C2)C1 [Example 44, 1-(6-(7-(8-chloronaphthalen-1-yl)-2-((1-((dimethylamino)methyl)cyclopropyl)methoxyl)-5,6,7,8-tetrahydropyrido[3,4-d]pyrimidin-4-yl)-2,6-diazaspiro[3.4]octane-2-yl)prop-2-ene-1-one] | 3300
C=CC(=O)N1[C@@H]2CC[C@H]1CN(c1nc(OCC3(CN(C)C)CC3)nc3c1CCN(c1cccc4cccc(Cl)c14)C3)C2 [Example 37, 1-((1R,5S)-3-(7-(8-chloronaphthalen-1-yl)-2-((1-((dimethylamino)methyl)cyclopropyl)methoxyl)-5,6,7,8-tetrahydropyrido[3,4-d]pyrimidin-4-yl)-3,8-diazabicyclo[3.2.1]octane-8-yl)prop-2-ene-1-one] | 1400
C=CC(=O)N1CC2CCC1CN2c1nc(OCC2(CN(C)C)CC2)nc2c1CCN(c1cccc3cccc(Cl)c13)C2 (stereo not drawn) [Example 43, 1-(5-(7-(8-chloronaphthalen-1-yl)-2-((1-((dimethylamino)methyl)cyclopropyl)methoxyl)-5,6,7,8-tetrahydropyrido[3,4-d]pyrimidin-4-yl)-2,5-diazabicyclo[2.2.2]octane-2-yl)prop-2-ene-1-one] | 830
C=CC(=O)N1CCN(c2nc(OCC3(CN(C)C)CC3)nc3c2CCN(c2cccc4cccc(Cl)c24)C3)CC12CC2 [Example 39, 1-(7-(7-(8-chloronaphthalen-1-yl)-2-((1-((dimethylamino)methyl)cyclopropyl)methoxyl)-5,6,7,8-tetrahydropyrido[3,4-d]pyrimidin-4-yl)-4,7-diazaspiro[2.5]octane-4-yl)prop-2-ene-1-one] | 2500

The remaining lines, values ahead:

IC50 [nM] | Compound
110 | C=C(F)C(=O)N1CCN(c2nc(OCC3(CN(C)C(C)C)CC3)nc3c2CCN(c2cccc4ccc(F)c(Cl)c24)C3)C[C@@H]1CC#N [Example 61, (S)-2-(4-(7-(8-chloro-7-fluoronaphthalen-1-yl)-2-((1-((isopropyl(methyl)amino)methyl)cyclopropyl)methoxy)-5,6,7,8-tetrahydropyrido [3,4-d]pyrimidin-4-yl)-1-(2-fluoroacroloyl)piperazin-2-yl) acetonitrile]
300 | C=CC(=O)N1CC2(C1)CN(c1nc(OCC3(CN(C)C)CC3)nc3c1CCN(c1cccc4cccc(Cl)c14)C3)C2 [Example 40, 1-(6-(7-(8-chloronaphthalen-1-yl)-2-((1-((dimethylamino)methyl)cyclopropyl)methoxyl)-5,6,7,8-tetrahydropyrido[3,4-d]pyrimidin-4-yl)-2,6-diazaspiro[3.3]heptane-2-yl)prop-2-ene-1-one]
250 | [2H]C([2H])([2H])N(CC1(COc2nc3c(c(N4CCN(C(=O)C(=C)F)[C@@H](CC#N)C4)n2)CCN(c2c(C)ccc4[nH]ncc24)C3)CC1)C([2H])([2H])[2H] [Example 36]
92 | C=C(F)C(=O)N1CCN(c2nc(OCC3(CN(CC)CC)CC3)nc3c2CCN(c2cccc4ccc(F)c(Cl)c24)C3)C[C@@H]1CC#N [Example 60, (S)-2-(4-(7-(8-chloro-7-fluoronaphthalen-1-yl)-2-((1-((diethylamino)methyl)cyclopropyl)methoxy)-5,6,7,8-tetrahydropyrido[3,4-d]pyrimidin-4-yl)-1-(2-fluoroacroloyl)piperazin-2-yl) acetonitrile]
47 | C=C(F)C(=O)N1CCN(c2nc(OCC3(CN(C)CC)CC3)nc3c2CCN(c2cccc4cccc(Cl)c24)C3)C[C@@H]1CC#N [Example 54, (S)-2-(4-(7-(8-chloronaphthalen-1-yl)-2-((1-((ethyl (methyl)amino)methyl)cyclopropyl)methoxy)-5,6,7,8-tetrahydropyrido[3,4-d]pyrimidin-4-yl)-1-(2-fluoroacroloyl)piperazin-2-yl) acetonitrile]
49 | [2H]C([2H])([2H])N(CC1(COc2nc3c(c(N4CCN(C(=O)C(=C)F)[C@@H](CC#N)C4)n2)CCN(c2cccc4cccc(Cl)c24)C3)CC1)C([2H])([2H])[2H] [Example 45]
41 | C=CC(=O)N1CCN(c2nc(OCC3(N(C)C)CC3)nc3c2CCN(c2cccc4cccc(Cl)c24)C3)CC1CC#N (stereo not drawn) [Example 30]
180 | C=C(F)C(=O)N1CCN(c2nc(OCC3(CN4CC(F)C4)CC3)nc3c2CCN(c2cccc4ccc(F)cc24)C3)C[C@@H]1CC#N [Example 66]
36 | C=C(F)C(=O)N1CCN(c2nc(OCC3(CN(C)CC)CC3)nc3c2CCN(c2cccc4ccc(F)c(Cl)c24)C3)C[C@@H]1CC#N [Example 62, (S)-2-(4-(7-(8-chloro-7-fluoronaphthalen-1-yl)-2-((1-((ethyl(methyl)amino)methyl)cyclopropyl)methoxy)-5,6,7,8-tetrahydropyrido[3,4-d]pyrimidin-4-yl)-1-(2-fluoroacroloyl)piperazin-2-yl) acetonitrile]
61 | C=C(F)C(=O)N1CCN(c2nc(OCC3(CN(C)C(C)C)CC3)nc3c2CCN(c2cccc4cccc(Cl)c24)C3)C[C@@H]1CC#N [Example 56, (S)-2-(4-(7-(8-chloronaphthalen-1-yl)-2-((1-((isopropyl(methyl)amino)methyl)cyclopropyl)methoxy)-5,6,7,8-tetrahydropyrido[3,4-d]pyrimidin-4-yl)-1-(2-fluoroacroloyl)piperazin-2-yl) acetonitrile]
37 | C=C(F)C(=O)N1CCN(c2nc(OCC3(COC)CN(C)C3)nc3c2CCN(c2cccc4cccc(Cl)c24)C3)C[C@@H]1CC#N [Example 46]
